How the values were obtained:
[1] = molecular target: T1, human recombinant wild-type ALK kinase domain (amino acids 1093-1411) (Homo sapiens, UniProt Q9UM73); assay: ALK enzyme assay 2 (microfluidic mobility shift assay); type: biochemical;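 note: kinase reaction run 1 h at room temperature, conversion quantified by electrophoretic separation of fluorescent peptide substrate from phosphorylated product, about 15-20% turnover without inhibitor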
T1 construct: ALK kinase domain (amino acids 1093-1411); made in house
T1 sequence (Q9UM73 1093-1411): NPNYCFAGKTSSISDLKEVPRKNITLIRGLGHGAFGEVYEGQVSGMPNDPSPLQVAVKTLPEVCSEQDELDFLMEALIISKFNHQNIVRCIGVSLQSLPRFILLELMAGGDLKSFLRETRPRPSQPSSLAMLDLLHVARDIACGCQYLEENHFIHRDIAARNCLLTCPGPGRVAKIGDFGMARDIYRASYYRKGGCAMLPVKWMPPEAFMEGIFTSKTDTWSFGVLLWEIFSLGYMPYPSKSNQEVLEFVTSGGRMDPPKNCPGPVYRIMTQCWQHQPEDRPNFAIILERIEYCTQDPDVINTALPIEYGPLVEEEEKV
Protocol: The reactions were incubated for 1 h at room temperature, stopped by the addition of 0.1 M EDTA, pH 8, and the extent of reactions (˜15-20% conversion with no inhibitor) was determined after electrophoretic separation of the fluorescently labeled peptide substrate and phosphorylated product on an LabChip EZ Reader II (Caliper Life Sciences, Hopkinton, Mass.).

[2] = molecular target: EML4-ALK wt v1 in NIH-3T3 cells (Homo sapiens, UniProt Q9UM73)
Sequence of EML4-ALK wt v1 in NIH-3T3 cells (Q9UM73 with tags, fused parts or gaps): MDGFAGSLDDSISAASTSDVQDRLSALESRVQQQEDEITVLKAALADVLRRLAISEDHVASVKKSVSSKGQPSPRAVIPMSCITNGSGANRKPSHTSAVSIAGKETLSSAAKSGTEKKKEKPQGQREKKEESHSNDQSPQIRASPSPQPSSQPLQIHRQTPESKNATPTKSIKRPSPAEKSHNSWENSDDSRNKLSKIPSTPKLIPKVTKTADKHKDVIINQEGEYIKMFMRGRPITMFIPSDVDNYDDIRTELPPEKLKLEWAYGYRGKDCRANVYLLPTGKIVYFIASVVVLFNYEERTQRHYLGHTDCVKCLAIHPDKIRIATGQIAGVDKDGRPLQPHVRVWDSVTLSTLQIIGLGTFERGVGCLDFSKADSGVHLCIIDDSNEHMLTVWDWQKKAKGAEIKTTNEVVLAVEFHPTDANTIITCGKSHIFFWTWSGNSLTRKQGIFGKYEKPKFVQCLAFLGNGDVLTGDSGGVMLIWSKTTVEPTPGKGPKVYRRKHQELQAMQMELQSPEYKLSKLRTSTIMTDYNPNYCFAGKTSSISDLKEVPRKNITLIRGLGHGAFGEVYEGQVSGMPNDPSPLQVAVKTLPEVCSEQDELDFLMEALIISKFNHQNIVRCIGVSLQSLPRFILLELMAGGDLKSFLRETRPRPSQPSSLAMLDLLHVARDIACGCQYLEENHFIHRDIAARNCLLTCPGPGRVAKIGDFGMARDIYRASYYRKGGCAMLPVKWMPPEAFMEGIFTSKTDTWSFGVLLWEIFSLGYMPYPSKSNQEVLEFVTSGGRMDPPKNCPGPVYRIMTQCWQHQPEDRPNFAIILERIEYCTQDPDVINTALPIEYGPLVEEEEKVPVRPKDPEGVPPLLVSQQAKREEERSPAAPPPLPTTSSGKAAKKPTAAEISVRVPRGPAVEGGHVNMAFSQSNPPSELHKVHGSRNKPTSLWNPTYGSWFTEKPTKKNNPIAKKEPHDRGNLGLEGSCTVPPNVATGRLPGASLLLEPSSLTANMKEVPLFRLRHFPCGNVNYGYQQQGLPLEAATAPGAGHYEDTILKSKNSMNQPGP

| SMILES | Ki [1] [nM] | IC50 [2] [nM] |
| --- | --- | --- |
| C[C@@H](Oc1cc(-c2csc(CO)n2)cnc1N)c1cc(F)ccc1-n1nccn1 [Example 105, [4-(6-amino-5-{(1R)-1-[5-fluoro-2-(2H-1,2,3-triazol-2-yl)phenyl]ethoxy}pyridin-3-yl)-1,3-thiazol-2-yl]methanol] | 4.1 | 166 |
| COc1ncccc1-c1cnc(N)c(OC(C)c2cc(F)ccc2N2CCCC2=O)n1 (stereo not shown) [Example 69, 1-[2-(1-{[3-amino-6-(2-methoxypyridin-3-yl)pyrazin-2-yl]oxy}ethyl)-4-fluorophenyl]pyrroli-din-2-one] | 1.1 | 52.6 |
| Cc1nn([C@H]2CCS(=O)(=O)C2)c(C)c1-c1cnc(N)c(O[C@H](C)c2cc(F)ccc2-n2nccn2)c1 [Example 127, 5-{1-[(3S)-1,1-dioxidotetrahydrothiophen-3-yl]-3,5-dimethyl-1H-pyrazol-4-yl}-3-{(1R)-1-[5-fluoro-2-(2H-1,2,3-triazol-2-yl)phenyl]ethoxy}pyridin-2-amine] | < 0.2 | 2.54 |
| C[C@@H](N)c1ccc(-c2cnc(N)c(O[C@H](C)c3cc(F)ccc3-n3nccn3)c2)cc1 [Example 88, 5-{4-[(1R)-1-aminoethyl]phenyl}-3-{(1R)-1-[5-fluoro-2-(2H-1,2,3-triazol-2-yl)phenyl]ethoxy}-pyridin-2-amine] | < 0.2 | 2.61 |
| C[C@@H](Oc1cc(-c2cnn(C3CCN(C(=O)CN(C)C)CC3)c2)cnc1N)c1cc(F)ccc1-n1nccn1 [Example 128, 1-{4-[4-(6-amino-5-{(1R)-1-[5-fluoro-2-(2H-1,2,3-triazol-2-yl)phenyl]ethoxy}pyridin-3-yl)-1H-pyrazol-1-yl]piperidin-1-yl}-2-(dimethylamino)ethanone] | < 0.2 | 9.8 |
| Cc1n[nH]cc1-c1cnc(N)c(OC(C)c2cc(F)ccc2N2CCCC2=O)n1 (stereo not shown) [Example 65, 1-[2-(1-{[3-amino-6-(3-methyl-1H-pyrazol-4-yl)pyrazin-2-yl]oxy}ethyl)-4-fluorophenyl]pyrroli-din-2-one] | 5.1 | 193 |
| Cc1n[nH]cc1-c1cnc(N)c(O[C@H](C)c2cc(F)ccc2-n2nccn2)n1 [Example 67, 3-{(1R)-1-[5-fluoro-2-(2H-1,2,3-triazol-2-yl)phenyl]ethoxy}-5-(3-methyl-1H-pyrazol-4-yl)pyrazin-2-amine] | 0.56 | 40.9 |
| C[C@@H](Oc1cc(-c2cccc(P(C)(C)=O)c2)cnc1N)c1cc(F)ccc1-n1nccn1 [Example 112, 5-[3-(dimethylphosphoryl)phenyl]-3-{(1R)-1-[5-fluoro-2-(2H-1,2,3-triazol-2-yl)phenyl]ethoxy}pyridin-2-amine] | 0.203 | 38.1 |
| COc1ccc(F)cc1C(C)Oc1cc(-c2nsc(S(C)(=O)=O)n2)cnc1N (stereo not shown) [Example 133, 3-[1-(5-fluoro-2-methoxyphenyl)ethoxy]-5-[5-(methylsulfonyl)-1,2,4-thiadiazol-3-yl]pyridin-2-amine] | 1.28 | 687 |
| CNCc1ccc(-c2cnc(N)c(OC(C)c3cc(F)ccc3OC)c2)cc1S(C)(=O)=O (stereo not shown) [Example 134, 3-[1-(5-fluoro-2-methoxyphenyl)ethoxy]-5-{4-[(methylamino)methyl]-3-(methylsulfonyl)phenyl}pyridin-2-amine] | 0.12 | 9.1 |
| C[C@@H](Oc1cc(-c2ccnc(N3CCN(C)CC3)c2)cnc1N)c1cc(F)ccc1-n1nccn1 [Example 73, 5-{(1R)-1-[5-fluoro-2-(2H-1,2,3-triazol-2-yl)phenyl]ethoxy}-2′-(4-methylpiperazin-1-yl)-3,4′-bipyridin-6-amine] | < 0.2 | 6.73 |
| C[C@@H](Oc1cc(-c2cnc(CO)s2)cnc1N)c1cc(F)ccc1-n1nccn1 [Example 106, [5-(6-amino-5-{(1R)-1-[5-fluoro-2-(2H-1,2,3-triazol-2-yl)phenyl]ethoxy}pyridin-3-yl)-1,3-thiazol-2-yl]methanol] | 0.68 | 21.5 |
| C[C@@H](Oc1cc(-c2cccc3c2CNC3=O)cnc1N)c1cc(F)ccc1-n1nccn1 [Example 85, 4-(6-Amino-5-((R)-1-(5-fluoro-2-(2H-1,2,3-triazol-2-yl)phenyl)ethoxy)pyridin-3-yl)isoindolin-1-one] | 0.37 | 6.81 |
| C[C@@H](Oc1cc(-c2cccc(CS(C)(=O)=O)c2)cnc1N)c1cc(F)ccc1-n1nccn1 [Example 87, 3-{(1R)-1-[5-fluoro-2-(2H-1,2,3-triazol-2-yl)phenyl]ethoxy}-5-{3-[(methylsulfonyl)methyl]phenyl}pyridin-2-amine] | < 0.2 | 4.14 |
| C[C@@H](Oc1nc(-c2cccc(S(C)(=O)=O)c2)cnc1N)c1cc(F)ccc1-n1nccn1 [Example 72, 3-{(1R)-1-[5-fluoro-2-(2H-1,2,3-triazol-2-yl)phenyl]ethoxy}-5-[3-(methylsulfonyl)phen-yl]pyrazin-2-amine] | 0.24 | 10.4 |
| Cc1nn(C2CCNCC2)cc1-c1cnc(N)c(O[C@H](C)c2cc(F)ccc2-n2nccn2)c1 [Example 124, 3-{(1R)-1-[5-fluoro-2-(2H-1,2,3-triazol-2-yl)phenyl]ethoxy}-5-[3-methyl-1-(piperidin-4-yl)-1H-pyrazol-4-yl]pyridin-2-amine] | < 0.2 | 2.04 |
| C[C@@H](Oc1cc(-c2cccc(S(N)(=O)=O)c2)cnc1N)c1cc(F)ccc1-n1nccn1 [Example 113, 3-(6-amino-5-{(1R)-1-[5-fluoro-2-(2H-1,2,3-triazol-2-yl)phenyl]ethoxy}pyridin-3-yl)benzenesulfonamide] | 0.26 | 10.1 |
| Cc1nc(C(C)O)sc1-c1cnc(N)c(O[C@H](C)c2cc(F)ccc2-n2nccn2)c1 (stereo partly drawn) [Example 96, 1-[5-(6-amino-5-{(1R)-1-[5-fluoro-2-(2H-1,2,3-triazol-2-yl)phenyl]ethoxy}pyridin-3-yl)-4-methyl-1,3-thiazol-2-yl]ethanol] | < 0.2 | 17.1 |
| C[C@@H](Oc1cc(-c2cn([C@@H]3C[C@H]4CC[C@@H](C3)N4)nc2C#N)cnc1N)c1cc(F)ccc1-n1nccn1 [Example 140, 4-(6-amino-5-{(1R)-1-[5-fluoro-2-(2H-1,2,3-triazol-2-yl)phenyl]ethoxy}pyridin-3-yl)-1-[(3-exo)-8-azabicyclo[3.2.1]oct-3-yl]-1H-pyrazole-3-carbonitrile] | < 0.2 | 15.9 |
| C[C@@H](Oc1cc(-c2ccnc(N3CCN(C)CC3)c2F)cnc1N)c1cc(F)ccc1-n1nccn1 [Example 132, 3′-fluoro-5-{(1R)-1-[5-fluoro-2-(2H-1,2,3-triazol-2-yl)phenyl]ethoxy}-2,-(4-methylpiperazin-1-yl)-3,4′-bipyridin-6-amine] | < 0.2 | 5.67 |
| Cc1n[nH]c(C)c1-c1cnc(N)c(O[C@H](C)c2cc(F)ccc2F)c1 [Example 48, 3-[(1R)-(2,5-difluorophenyl)-ethoxy]-5-(3,5-dimethyl-1H-pyrazol-4-yl)pyridin-2-amine] | 1.56 |  |
| Cc1ccc(-c2cnc(N)c(O[C@H](C)c3cc(F)ccc3-n3nccn3)c2)cn1 [Example 117, 5-{(1R)-1-[5-fluoro-2-(2H-1,2,3-triazol-2-yl)phenyl]ethoxy}-6′-methyl-3,3′-bipyridin-6-amine] | 0.77 | 10.3 |
| CNS(=O)(=O)c1ccc(OC)c(-c2cnc(N)c(O[C@H](C)c3cc(F)ccc3-n3nccn3)c2)c1 [Example 143, 3-(6-amino-5-{(1R)-1-[5-fluoro-2-(2H-1,2,3-triazol-2-yl)phenyl]ethoxy}pyridin-3-yl)-4-methoxy-N-methylbenzenesulfonamide] | < 0.2 | 8.98 |
| C[C@@H](Oc1cc(-c2cnn(C3CCNCC3)c2)cnc1N)c1cc(F)ccc1-n1nccn1 [Example 80, 3-{(1R)-1-[5-fluoro-2-(2H-1,2,3-triazol-2-yl)phenyl]ethoxy}-5-[1-(piperidin-4-yl)-1H-pyrazol-4-yl]pyridin-2-amine] | < 0.2 | 6.58 |
| Cc1cc(-c2cnc(N)c(O[C@H](C)c3cc(F)ccc3-n3nccn3)c2)cc(P(C)(C)=O)c1 [Example 114, 5-[3-(dimethylphosphoryl)-5-methylphenyl]-3-{(1R)-1-[5-fluoro-2-(2H-1,2,3-triazol-2-yl)phenyl]ethoxy}pyridin-2-amine] | 1.3 | 89.6 |
| C[C@@H](Oc1nc(-c2ccnc(N3CCN(C)CC3)c2)cnc1N)c1cc(F)ccc1-n1nccn1 [Example 70, 3-{(1R)-1-[5-fluoro-2-(2H-1,2,3-triazol-2-yl)phenyl]ethoxy}-5-[2-(4-methylpiperazin-1-yl)pyridin-4-yl]pyrazin-2-amine] | < 0.2 | 5.48 |
| CNC(=O)c1nc(C)c(-c2cnc(N)c(O[C@H](C)c3cc(F)ccc3-n3nccn3)c2)s1 [Example 90, 5-(6-amino-5-{(1R)-1-[5-fluoro-2-(2H-1,2,3-triazol-2-yl)phenyl]ethoxy}pyridin-3-yl)-N,4-dimethyl-1,3-thiazole-2-carboxamide] | 1.2 | 58.9 |
| C[C@@H](Oc1cc(-c2cnc(CO)n2C)cnc1N)c1cc(F)ccc1-n1nccn1 [Example 97, [5-(6-amino-5-{(1R)-1-[5-fluoro-2-(2H-1,2,3-triazol-2-yl)phenyl]ethoxy}pyridin-3-yl)-1-methyl-1H-imidazol-2-yl]methanol] | 0.327 | 41.3 |
| C[C@@H](Oc1cc(-c2ccnc(N3CC(O)C3)c2F)cnc1N)c1cc(F)ccc1-n1nccn1 [Example 130, 1-(6-amino-3′-fluoro-5-{(1R)-1-[5-fluoro-2-(2H-1,2,3-triazol-2-yl)phenyl]ethoxy}-3,4′-bipyridin-2′-yl)azetidin-3-ol] | 0.26 | 2.25 |
| COCc1ccc(-c2cnc(N)c(OC(C)c3cc(F)ccc3OC)c2)cc1S(C)(=O)=O (stereo not shown) [Example 135, 3-[1-(5-fluoro-2-methoxyphenyl)ethoxy]-5-[4-(methoxymethyl)-3-(methylsulfonyl)phenyl]pyridin-2-amine] |  | 4.15 |

— patent US8916593B2, “Alkoxy-substituted 2-aminopyridines as ALK inhibitors” (Pfizer Inc., priority 2010, dated 2014)
